# ChEMBL document CHEMBL1151626, “Diphenylamine, an antihyperglycemic agent from onion and tea” (1984)
# Legend:
# Format in all cases: functional
# Parameters in all cases: scale not given: the % may be the effect or the level left
# Oryctolagus cuniculus [1] = assay: Hypoglycemic activity in fasting rabbit assessed as reduction of plasma glucose at 10 mg/kg, po
# Oryctolagus cuniculus [2] = assay: Hypoglycemic activity in glucose-fed rabbit assessed as reduction of plasma glucose at 10 mg/kg, po after 0.5 hr
# Oryctolagus cuniculus [3] = assay: Hypoglycemic activity in glucose-fed rabbit assessed as reduction of plasma glucose at 10 mg/kg, po after 1 hr
# Oryctolagus cuniculus [4] = assay: Hypoglycemic activity in glucose-fed rabbit assessed as reduction of plasma glucose at 10 mg/kg, po after 1.5 hrs
# Oryctolagus cuniculus [5] = assay: Hypoglycemic activity in glucose-fed rabbit assessed as reduction of plasma glucose at 10 mg/kg, po after 2 hrs
# Oryctolagus cuniculus [6] = assay: Hypoglycemic activity in glucose-fed rabbit assessed as reduction of plasma glucose at 10 mg/kg, po after 2.5 hrs
# Oryctolagus cuniculus [7] = assay: Hypoglycemic activity in rabbit assessed as reduction of plasma glucose at 10 mg/kg, po after 2 hrs
# Oryctolagus cuniculus [8] = assay: Hypoglycemic activity in fasting rabbit assessed as reduction of plasma glucose at 50 mg/kg, po
# Oryctolagus cuniculus [9] = assay: Hypoglycemic activity in glucose-fed rabbit assessed as reduction of plasma glucose at 50 mg/kg, po after 0.5 hr
# Oryctolagus cuniculus [10] = assay: Hypoglycemic activity in glucose-fed rabbit assessed as reduction of plasma glucose at 50 mg/kg, po after 1 hr
# Oryctolagus cuniculus [11] = assay: Hypoglycemic activity in glucose-fed rabbit assessed as reduction of plasma glucose at 50 mg/kg, po after 1.5 hrs
# Oryctolagus cuniculus [12] = assay: Hypoglycemic activity in glucose-fed rabbit assessed as reduction of plasma glucose at 50 mg/kg, po after 2 hrs
# Oryctolagus cuniculus [13] = assay: Hypoglycemic activity in glucose-fed rabbit assessed as reduction of plasma glucose at 50 mg/kg, po after 2.5 hrs
# Oryctolagus cuniculus [14] = assay: Hypoglycemic activity in rabbit assessed as reduction of plasma glucose at 50 mg/kg, po after 2 hrs
compound,measurement,setting,value
c1ccc(Nc2ccccc2)cc1 [DIPHENYLAMINE],Activity,Oryctolagus cuniculus [1],102.2 mg%
same,Activity,Oryctolagus cuniculus [2],140.2 mg%
same,Activity,Oryctolagus cuniculus [3],154.6 mg%
same,Activity,Oryctolagus cuniculus [4],80.2 mg%
same,Activity,Oryctolagus cuniculus [5],71.8 mg%
same,Activity,Oryctolagus cuniculus [6],77.2 mg%
same,Activity,Oryctolagus cuniculus [7],61.4%
CCCCNC(=O)NS(=O)(=O)c1ccc(C)cc1 [TOLBUTAMIDE],Activity,Oryctolagus cuniculus [8],104.2 mg%
same,Activity,Oryctolagus cuniculus [9],129 mg%
same,Activity,Oryctolagus cuniculus [10],154.3 mg%
same,Activity,Oryctolagus cuniculus [11],125.2 mg%
same,Activity,Oryctolagus cuniculus [12],104 mg%
same,Activity,Oryctolagus cuniculus [13],95.1 mg%
same,Activity,Oryctolagus cuniculus [14],44.1%
